From US12084420B2, “Indoline compounds for inhibiting KIF18A” (Volastra Therapeutics, Inc., priority 2021, dated 2024) come the findings set out here.

Like-named read-outs stand apart in the source and are kept apart here.

Data set [1] has as its target KIF18a-Microtubule Complex (Homo sapiens (Human), UniProt Q8NI77). The experiment in a line: Binding kinetics to KIF18a-microtubule complex (global progress curve analysis). The settings on record: for kon (on-rate from binding kinetics assay) / koff (off-rate from binding kinetics assay): global progress curve analysis; for Ki: read-out: KI (determined from binding kinetic assay koff/kon), koff/kon; for koff: read-out: koff (off-rate from binding kinetics assay). In outline:
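kon and koff determined by global progress curve analysis, with ADP formation measured by ADP-Glo. Time- and dose-dependent progress curves were globally fitted to a Michaelis-Menten model with one-step slow-binding inhibition.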

Data set [2] concerns HCC15 cells. The data set is described as follows: Cell viability of KIF18a-sensitive cell lines, HCC15 (Cell Titre-Glo, 7 days). The class given is cell-based. Here is the method: (§1) Cell Viability of KIF18a-Sensitive Cell Lines
(§2) Cell lines were seeded as follows 24 hours before compound treatment: HCC15 (Korean Cell Line Bank) 600 cell/well, 95 μL of RPMI-1640 media supplemented with 100 units/mL penicillin, 100 units/mL streptomycin and 10% FBS; NIH:OVCAR-3 (ATCC), 1000 cell/well, 95 μL of RPMI-1640 media supplemented with 100 units/mL penicillin, 100 units/mL streptomycin, 0.01 mg/mL bovine insulin, and 20% FBS; JIMT-1 (Addexbio) 1000 cell/well, 95 μL of DMEM media supplemented with 100 units/mL penicillin, 100 units/mL streptomycin, and 10% FBS.
(§3) Test compounds were added to cells in a 20× dilution scheme by adding 5 μL of serially diluted compound to the plate, and the treated cells were incubated for an additional 7 days in a 37° C., 5% CO2 incubator. DMSO was used as the negative control (0% effect), and wells omitting cells were used as the positive control (100% effect). The cells were incubated for seven days, and cell viability determined via the Promega Cell Titre-Glo® Assay kit. Luminescence units were converted to ATP concentrations via an ATP standard curve (10 point, 2-fold dilution from 5 uM). % Inhibition was calculated for each well as: ([max−min]−[test−min])/[max−min]. IC50 values were calculated from concentration vs. % Inhibition data via a four-parameter variable slope model.

Data set [3] deals with NIH:OVCAR-3 cells. The data set is described as follows: Cell viability of KIF18a-sensitive cell lines, NIH:OVCAR-3 (Cell Titre-Glo, 7 days). The format is cell-based. Here is the method: as §1, §2, §3
Data set [4] deals with JIMT-1 cells. The experiment in a line: Cell viability of KIF18a-sensitive cell lines, JIMT-1 (Cell Titre-Glo, 7 days). The class given is cell-based. Here is the method: as §1, §2, §3
In data set [5] the target is hKIF18A (1-374) (Homo sapiens (Human), UniProt Q8NI77). The data set is described as follows: Inhibition of KIF18A microtubule-dependent ATPase activity (ADP-Glo). The settings on record: KIF18A microtubule-dependent ATPase activity, biochemical assay.
Sequence of hKIF18A (1-374) (Q8NI77 whole entry, looked up): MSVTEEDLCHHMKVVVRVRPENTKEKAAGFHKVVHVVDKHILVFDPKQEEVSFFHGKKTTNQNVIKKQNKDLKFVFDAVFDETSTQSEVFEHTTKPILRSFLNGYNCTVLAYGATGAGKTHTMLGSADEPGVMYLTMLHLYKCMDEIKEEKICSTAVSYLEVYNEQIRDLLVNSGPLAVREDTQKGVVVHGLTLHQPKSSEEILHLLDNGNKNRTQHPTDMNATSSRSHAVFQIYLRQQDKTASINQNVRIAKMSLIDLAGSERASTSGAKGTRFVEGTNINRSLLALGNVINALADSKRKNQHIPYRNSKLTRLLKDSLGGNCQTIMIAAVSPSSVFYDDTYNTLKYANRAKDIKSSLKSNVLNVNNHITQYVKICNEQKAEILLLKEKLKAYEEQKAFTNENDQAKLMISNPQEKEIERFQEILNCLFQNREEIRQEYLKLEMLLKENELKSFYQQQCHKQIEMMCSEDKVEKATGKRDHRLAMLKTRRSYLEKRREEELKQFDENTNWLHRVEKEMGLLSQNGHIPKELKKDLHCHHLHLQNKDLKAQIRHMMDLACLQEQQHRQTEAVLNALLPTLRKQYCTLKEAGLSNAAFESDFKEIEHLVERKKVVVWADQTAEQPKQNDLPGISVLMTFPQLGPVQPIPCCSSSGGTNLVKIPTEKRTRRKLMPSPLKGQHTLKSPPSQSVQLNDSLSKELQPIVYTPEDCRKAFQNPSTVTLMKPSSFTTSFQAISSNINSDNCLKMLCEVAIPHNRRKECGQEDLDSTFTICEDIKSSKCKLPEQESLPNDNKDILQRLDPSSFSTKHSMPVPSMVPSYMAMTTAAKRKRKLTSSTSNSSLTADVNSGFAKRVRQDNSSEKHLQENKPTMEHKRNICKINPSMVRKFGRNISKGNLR
Sequence of hKIF18A (1-374) (Q2XVP4 whole entry partner, looked up): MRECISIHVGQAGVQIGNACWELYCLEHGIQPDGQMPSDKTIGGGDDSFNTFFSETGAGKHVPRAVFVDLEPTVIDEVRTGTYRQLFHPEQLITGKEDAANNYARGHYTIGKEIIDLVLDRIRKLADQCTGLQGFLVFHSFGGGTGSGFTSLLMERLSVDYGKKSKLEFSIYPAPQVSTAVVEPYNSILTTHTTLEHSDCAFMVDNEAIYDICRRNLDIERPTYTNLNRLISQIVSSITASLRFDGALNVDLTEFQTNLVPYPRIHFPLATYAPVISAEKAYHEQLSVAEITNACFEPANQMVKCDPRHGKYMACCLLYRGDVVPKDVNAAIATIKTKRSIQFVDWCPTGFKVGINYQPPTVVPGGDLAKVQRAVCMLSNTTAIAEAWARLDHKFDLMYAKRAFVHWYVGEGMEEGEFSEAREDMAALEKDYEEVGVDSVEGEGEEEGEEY
Sequence of hKIF18A (1-374) (P02554 whole entry partner, looked up): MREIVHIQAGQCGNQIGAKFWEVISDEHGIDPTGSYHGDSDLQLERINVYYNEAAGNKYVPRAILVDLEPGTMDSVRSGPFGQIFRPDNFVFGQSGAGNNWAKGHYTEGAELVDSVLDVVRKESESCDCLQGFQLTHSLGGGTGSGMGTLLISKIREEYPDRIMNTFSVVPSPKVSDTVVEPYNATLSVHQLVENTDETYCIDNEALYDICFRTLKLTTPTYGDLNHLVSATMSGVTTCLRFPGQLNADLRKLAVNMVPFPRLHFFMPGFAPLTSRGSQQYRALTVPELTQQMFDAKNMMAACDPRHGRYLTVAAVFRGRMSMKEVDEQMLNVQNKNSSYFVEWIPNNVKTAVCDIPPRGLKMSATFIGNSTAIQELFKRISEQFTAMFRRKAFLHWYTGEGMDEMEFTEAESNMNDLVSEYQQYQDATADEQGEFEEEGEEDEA
[6] abbreviates: HCC15, 168 h, HCC-15 cells, 7 days, Cell Titre-Glo, read-out: HCC-15 IC50.
The mark [7] stands for this setting: Homo sapiens, OVCAR-3, 168 h, NIH-OVCAR3 cells, 7 days, Cell Titre-Glo, read-out: NIH-OVCAR3 IC50.
Where [8] appears, read: Homo sapiens, 168 h, JIMT-1 cells, 7 days, Cell Titre-Glo, read-out: JIMT-1 IC50.
The mark [9] stands for this setting: HCC-15 cells, 7 days, Cell Titre-Glo, read-out: HCC-15 IC50.
Setting [10] is: NIH-OVCAR3 cells, 7 days, Cell Titre-Glo, read-out: NIH-OVCAR3 IC50.
Setting [11] is: JIMT-1 cells, 7 days, Cell Titre-Glo, read-out: JIMT-1 IC50.

Sequence of KIF18a-Microtubule Complex (Q8NI77 whole entry, looked up): as the sequence (Q8NI77 whole entry, looked up) above
Sequence of KIF18a-Microtubule Complex (Q2XVP4 whole entry partner, looked up): as the sequence (Q2XVP4 whole entry partner, looked up) above
Sequence of KIF18a-Microtubule Complex (P02554 whole entry partner, looked up): as the sequence (P02554 whole entry partner, looked up) above

Turning to `CS(=O)(=O)Nc1ccc2c(c1)C1(CCC3(CC3)CC1)CN2C(=O)c1cccc(S(=O)(=O)NC2CC(F)(F)C2)c1` [Compound 192, N-(3,3-difluorocyclobutyl)-3-(5″- (methylsulfonamido)dispiro[cyclopropane-1,1′-cyclohexane-4′,3″-indoline]-1″-carbonyl)benzenesulfonamide], the “kon (on-rate from binding kinetics assay)” value (from here on “kon”) in data set [1] came to 14400 M⁻¹ s⁻¹. Besides, the “disc. t1/2 (dissociation half-life ln(2)/koff)” value in data set [1] (ln(2)/koff) is given as 21 h. In addition, the Ki in data set [1] came to 0.64 nM. Moreover, the koff in data set [1] was 9.17e-06 s⁻¹. Besides, the IC50 was determined as 510 nM in data set [2] (setting [6]), 410 nM in data set [3] (setting [7]), 500 nM in data set [4] (setting [8]) and 10 nM in data set [5].
Turning to `CS(=O)(=O)Nc1ccc2c(c1)C1(CCC3(CC3)CC1)CN2C(=O)c1cccc([C@@H](O)CC2CCC2)c1` (single isomer, unassigned) [Compound 305a], in data set [1], the “koff (off-rate from binding kinetics assay)” value was found to be 0.000361 s⁻¹. Also, the “kon” value in data set [1] amounted to 97200 M⁻¹ s⁻¹. In data set [1] (ln(2)/koff), the “disc. t1/2 (dissociation half-life ln(2)/koff)” value is recorded as 0.56 h. Also, the Ki in data set [1] came out at 3.5 nM. Also, the 50% inhibitory concentration (IC50) in data set [2] (setting [9]) was found to be 74 nM; in data set [3] (setting [10]), 90 nM; in data set [4] (setting [11]) it was 52 nM; in data set [5], 8.1 nM.
Consider `Cc1cc(NC(=O)c2ccc(NS(=O)(=O)CCO)cc2N2CCC3(CC2)CC3)nc(N2CCC(F)(F)CC2)n1` [AMG650, 2-{6-azaspiro[2.5]octan-6-yl}-N-[2-(4,4-difluoropiperidin-1-yl)-6-methylpyrimidin-4-yl]-4-(2-hydroxyethanesulfonamido)benzamide, reference compound], for which, in data set [1] (ln(2)/koff), the “dissociation t1/2” value was 4.1 h. Besides, the IC50 in data set [2] (HCC15, 168 h, read-out: IC50, cell viability HCC-15) was 66 nM; in data set [3] (Homo sapiens, OVCAR-3, 168 h, read-out: IC50, cell viability NIH: OVCAR3), 100 nM; in data set [4] (Homo sapiens, JIMT-1, 168 h, read-out: IC50, cell viability JIMT-1), 130 nM.
As for `CS(=O)(=O)Nc1ccc2c(c1)C1(CCC3(CC3)CC1)CN2C(=O)c1cccc(S(=O)(=O)N2CC(F)(F)C2)c1` [Compound 257, N-(1″-(3-((3,3-difluoroazetidin-1-yl)sulfonyl)benzoyl)dispiro[cyclopropane-1,1′-cyclohexane-4′,3″-indolin]-5″- yl)methanesulfonamide], the “kon” value in data set [1] stood at 18300 M⁻¹ s⁻¹. The “disc. t1/2 (dissociation half-life ln(2)/koff)” value in data set [1] (ln(2)/koff) is 10 h. The Ki in data set [1] was found to be 0.96 nM. Also, in data set [1], the koff is 1.86e-05 s⁻¹. In addition, the half-inhibitory concentration (IC50) in data set [2] (setting [6]) was found to be 21 nM; in data set [3] (setting [7]), 21 nM; in data set [4] (setting [8]), 12 nM; in data set [5], 8.3 nM.
As to `CS(=O)(=O)Nc1ccc2c(c1)C1(CCC3(CC3)CC1)CN2C(=O)c1cccc(CN2CCC(F)(F)CC2)c1` [Compound 163, N-(1″-(3-((4,4-difluoropiperidin-1-yl)methyl)benzoyl)dispiro[cyclopropane-1,1′-cyclohexane-4′,3″-indolin]-5″- yl)methanesulfonamide], the IC50 in data set [2] (setting [6]) turned out to be 140 nM; in data set [3] (setting [7]), 190 nM; in data set [4] (setting [8]), 120 nM; in data set [5] it was 20 nM.
With `CCS(=O)(=O)Nc1ccc2c(c1)[C@]1(CC[C@@H](C(F)F)CC1)CN2C(=O)c1cccc(S(=O)(=O)NC(C)(C)C)c1` [Compound 333a], in data set [1], the “koff (off-rate from binding kinetics assay)” value stood at 3.61e-06 s⁻¹. In data set [1], the “kon” value came to 7780 M⁻¹ s⁻¹. Further, the “disc. t1/2 (dissociation half-life ln(2)/koff)” value in data set [1] (ln(2)/koff) is listed as 53 h. In addition, the Ki in data set [1] was determined as 0.47 nM. Moreover, the half-inhibitory concentration (IC50) in data set [2] (setting [9]) was determined as 22 nM; in data set [3] (setting [10]), 17 nM; in data set [4] (setting [11]), 24 nM; in data set [5] it was 18 nM.
On to `CC(C)(C)NS(=O)(=O)c1cc(C(=O)N2CC3(CCC4(CC4)CC3)c3cc(NS(C)(=O)=O)ccc32)ccc1F` [Compound 159, N-(tert-butyl)-2-fluoro-5-(5″- (methylsulfonamido)dispiro[cyclopropane-1,1′-cyclohexane-4′,3″-indoline]-1″-carbonyl)benzenesulfonamide], for which, in data set [1], the “kon” value turned out to be 7220 M⁻¹ s⁻¹. Besides, the “disc. t1/2 (dissociation half-life ln(2)/koff)” value in data set [1] (ln(2)/koff) is on record as 32 h. Also, in data set [1], the Ki came out at 0.83 nM. Moreover, in data set [1], the koff is 6.11e-06 s⁻¹. The IC50 in data set [2] (setting [6]) worked out at 21 nM; in data set [3] (setting [7]), 22 nM; in data set [4] (setting [8]), 15 nM; in data set [5] it was 19 nM.
For `CS(=O)(=O)Nc1ccc2c(c1)C1(CCC3(CC3)CC1)CN2C(=O)c1cccc(C(O)C2CCCC2)c1` (single isomer, unassigned) [Compound 165b], in data set [1], the “koff (off-rate from binding kinetics assay)” value is 4.72e-05 s⁻¹. The “kon” value in data set [1] is 11900 M⁻¹ s⁻¹. Also, the “disc. t1/2 (dissociation half-life ln(2)/koff)” value in data set [1] (ln(2)/koff) came to 4.2 h. Moreover, in data set [1], the Ki amounted to 3.9 nM. Moreover, the IC50 amounted to 46 nM in data set [2] (setting [9]), 57 nM in data set [3] (setting [10]), 38 nM in data set [4] (setting [11]) and 10 nM in data set [5].
`CC(C)(C)NS(=O)(=O)c1cccc(C(=O)N2CC3(CCC4(CC4)CC3)c3c2ccc(NS(C)(=O)=O)c3F)c1` [Compound 310, N-(tert-butyl)-3-(4″-fluoro-5″-(methylsulfonamido)dispiro[cyclopropane-1,1′-cyclohexane-4′,3″-indoline]-1″-carbonyl)benzenesulfonamide]: the half-inhibitory concentration (IC50) worked out at 11 nM in data set [2] (setting [6]), 9.1 nM in data set [3] (setting [7]), 7.9 nM in data set [4] (setting [8]) and 6.6 nM in data set [5].
For `CS(=O)(=O)Nc1ccc2c(c1)C1(CCCCC1)CN2C(=O)c1cccc(C(O)C2CCCC2)c1` (stereo not shown) [Compound 157, N-(1′-(3-(cyclopentyl(hydroxy)methyl)benzoyl)spiro[cyclohexane-1,3′-indolin]-5′-yl)methanesulfonamide], in that order: 600 nM, 720 nM, 440 nM and 58 nM.
On to `CC(C)(C)NS(=O)(=O)c1cccc(C(=O)N2CC3(CCC4(CC4)CC3)c3cc(NS(=O)(=O)C4CC4)ccc32)c1` [Compound 160, N-(tert-butyl)-3-(5″- (cyclopropanesulfonamido)dispiro [cyclopropane-1,1′-cyclohexane-4′,3″- indoline]-1″- carbonyl)benzenesulfonamide], for which, in data set [1], the “kon” value is 10600 M⁻¹ s⁻¹. Moreover, in data set [1] (ln(2)/koff), the “disc. t1/2 (dissociation half-life ln(2)/koff)” value was 33 h. Besides, the Ki in data set [1] was 0.54 nM. Moreover, the koff in data set [1] is 5.83e-06 s⁻¹. Also, the IC50 was 7.5 nM in data set [2] (setting [6]), 8 nM in data set [3] (setting [7]), 5.4 nM in data set [4] (setting [8]) and 20 nM in data set [5].
With `CC(C)(C)S(=O)(=O)Nc1cccc(C(=O)N2CC3(CCC4(CC4)CC3)c3cc(NS(C)(=O)=O)ccc32)c1` [Compound 355, 2-methyl-N-(3-(5″-(methylsulfonamido)dispiro[cyclopropane-1,1′-cyclohexane-4′,3″-indoline]-1″-carbonyl)phenyl)propane-2-sulfonamide], the concentration for half-maximal inhibition (IC50) in data set [2] (setting [6]) is 94 nM; in data set [3] (setting [7]), 110 nM; in data set [4] (setting [8]), 120 nM; in data set [5] it was 25 nM.
On to `CS(=O)(=O)Nc1ccc2c(c1)C1(CCC3(CC3)CC1)CN2C(=O)c1cccc(S(=N)(=O)C2CCCC2)c1` (single isomer, unassigned) [Compound 287b], for which the concentration for half-maximal inhibition (IC50) in data set [2] (setting [9]) came to 97 nM; in data set [3] (setting [10]), 33 nM; in data set [4] (setting [11]), 64 nM; in data set [5] it was 12 nM.
Consider `CC(C)(C)NS(=O)(=O)c1cccc(C(=O)N2CC3(CCC4(CC4)CC3)c3cc(NS(C)(=O)=O)c(F)cc32)c1` [Compound 309, N-(tert-butyl)-3-(6″-fluoro-5″-(methylsulfonamido)dispiro[cyclopropane-1,1′-cyclohexane-4′,3″-indoline]-1″-carbonyl)benzenesulfonamide], for which the half-maximal inhibitory concentration (IC50) amounted to 12 nM in data set [2] (setting [6]), 12 nM in data set [3] (setting [7]), 9.4 nM in data set [4] (setting [8]) and 6.5 nM in data set [5].
`CCNc1ccc2c(c1)C1(CCC3(CC3)CC1)CN2C(=O)c1cccc(S(=O)(=O)N2CCC(F)(F)CC2)c1` [Compound 30, (3-((4,4-difluoropiperidin-1-yl)sulfonyl)phenyl)(5″-(ethylamino)dispiro[cyclopropane-1,1′-cyclohexane-4′,3″-indolin]-1″-yl)methanone]: the half-maximal inhibitory concentration (IC50) in data set [2] (setting [6]) turned out to be 3500 nM; in data set [3] (setting [7]) it was 1430 nM; in data set [4] (setting [8]), 2300 nM; in data set [5], 180 nM.
